Results reported in patent US20170275302A1, “INHIBITORS OF THE RENAL OUTER MEDULLARY POTASSIUM CHANNEL” (Merck Sharp & Dohme Corp., priority 2014, published 2017).

These compounds were tested against T1, hROMK (hKir1.1) (Homo sapiens, UniProt P48048) (assay: Thallium Flux Assay (ROMK channel functional thallium flux assay, FLIPR-Tetra)). Details: HEK293 cells stably expressing hROMK (hKir1.1); FluxOR thallium flux, 30 min compound incubation; concentration inhibiting 50% of ROMK thallium flux signal.
T1 construct: expressed in transfected cells
T1 sequence (P48048 1-391): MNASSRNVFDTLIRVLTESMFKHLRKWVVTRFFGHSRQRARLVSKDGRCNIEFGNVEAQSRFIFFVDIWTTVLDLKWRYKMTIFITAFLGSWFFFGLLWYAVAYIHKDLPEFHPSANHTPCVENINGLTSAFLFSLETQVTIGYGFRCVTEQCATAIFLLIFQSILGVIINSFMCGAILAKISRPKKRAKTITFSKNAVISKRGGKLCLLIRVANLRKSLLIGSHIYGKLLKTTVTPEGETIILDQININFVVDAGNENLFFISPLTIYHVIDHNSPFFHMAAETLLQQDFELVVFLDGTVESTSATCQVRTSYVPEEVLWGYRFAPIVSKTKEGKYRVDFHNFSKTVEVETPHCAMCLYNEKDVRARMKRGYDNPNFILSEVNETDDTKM
Type: cell-based
Protocol: The following Thallium Flux Assay was performed on each of the final product compounds in the Examples.
HEK293 cells stably expressing hROMK (hKir1.1) were grown at 37° C. in a 10% CO2 humidified incubator in complete growth media: Dulbecco's Modified Eagle Medium supplemented with non-essential amino acids, Penicillin/Streptomycin/Glutamine, G418 and FBS. At >80% confluency, the media was aspirated from the flask and rinsed with 10 mL calcium/magnesium-free phosphate buffered saline (PBS). 5 mL of 1× trypsin (prepared in Ca/Mg Free PBS) was added to T-225 flask and the flask was returned to 37° C./CO2 incubator for 2-3 minutes. To dislodge the cells, the side of the flask was gently banged with one's hand. The cells were completely titrated and then the cells were transferred to 25 mL complete media, centrifuged at 1,500 rpm for 6 min followed by resuspension in complete growth media, and the cell concentration was determined. For typical re-seeding, 4E6 cells/T-225 flask will attain >80% confluency in 4 days. Under ideal growth conditions and appropriate tissue culture practices, this cell line is stable for 40-45 passages.
Compound Buffer (per microplate): 20 mL Probenecid/Assay Buffer; 0.3 mM ouabain (10 mM ouabain in water can be stored in amber bottle/aluminum foil at room temperature); Test compound
Stimulant Buffer (prepared at 5× final concentration in 1× FluxOR™Chloride-Free Buffer): 7.5 mM thallium sulfate and 0.75 mM potassium sulfate (to give a final assay concentration of 3 mM Thallium/0.3 mM potassium). Store at 4° C. when not in use. If kept sterile, this solution is good for months.
The ROMK channel functional thallium flux assay was performed in 384 wells, using the FLIPR-Tetra instrument. HEK-hKir1.1 cells were seeded in Poly-D-Lysine microplates and kept in a 37° C.-10% CO2 incubator overnight. On the day of the experiment, the growth media was replaced with the FluxOR™ reagent loading buffer and incubated, protected from light, at ambient temperature (23-25° C.) for 90 min. The loading buffer was replaced with assay buffer±test compound followed by 30 min incubation at ambient temperature, where the thallium/potassium stimulant was added to the microplate.
• 1. Seed HEK-hKir1.1 cells (50 μl at 20,000 cells/well) in 384-well PDL coated Microplates • 2. Allow cells to adhere overnight in humidified 37° C./10% CO2 incubator • 3. Completely remove cell growth media from microplate and replace with 25 μl loading buffer • 4. Incubate Microplate at room temperature, protected form light, for 90 min • 5. Remove loading buffer and replace with 25 μl 1× Assay Buffer±test compound. • 6. Incubate microplate at room temperature, protected from light, for 30 min • 7. At FLIPR-Tetra 384: Add stimulant (thallium/potassium) solution to microplate and monitor fluorescence. Excitation=400 nm, Emission=460 & 580 nm. Collect data for ˜10 min.
The fluorescence intensity of wells containing 3 μM of a standard control ROMK inhibitor of the present invention was used to define the ROMK-sensitive component of thallium flux. Fluorescence in the presence of test compounds was normalized to control values to provide % fluorescence change. IC50 values represent the concentration of compound that inhibited 50% of the ROMK thallium flux signal.
In the case of Cc1c([C@@H](O)CN2CCC3(CC2)CCN(c2cc4cncnc4s2)C3=O)ccc2c1COC2=O [Example 36], the IC50 is reported as 0.19 µM.
With Cc1c([C@@H](O)CN2CCC3(CC2)CCN(c2cc4cnccc4s2)C3=O)ccc2c1COC2=O [Example 37] the IC50 was 0.117 µM.
Compound Cc1c([C@@H](O)CN2CCC3(CC2)CCN(c2ccnc4c2OCO4)C3=O)ccc2c1COC2=O [Example 38, (R)-2-([1,3]dioxolo[4,5-b]pyridin-7-yl)-8-(2-hydroxy-2-(4-methyl-1-oxo-1,3-dihydroisobenzofuran-5-yl)ethyl)-2,8-diazaspiro[4.5]decan-1-one] has an IC50 of 0.0549 µM.
In the case of Cc1c([C@@H](O)CN2CCC3(CC2)CC(=O)N(c2cn4ncnc4cn2)C3)ccc2c1COC2=O [Example 39, (R)-2-([1,2,4]triazolo[1,5-a]pyrazin-6-yl)-8-(2-hydroxy-2-(4-methyl-1-oxo-1,3-dihydroisobenzofuran-5-yl)ethyl)-2,8-diazaspiro[4.5]decan-3-one], the IC50 is reported as 0.458 µM.
For Cc1c([C@@H](O)CN2CCC3(CC2)CC(=O)N(c2ccc4nc(C(F)(F)F)nn4c2)C3)ccc2c1COC2=O [Example 40], the IC50 was 0.894 µM.
For Cc1c([C@@H](O)CN2CCC3(CC2)CC(=O)N(c2cnn4ncccc24)C3)ccc2c1COC2=O [Example 41], the IC50 was 0.336 µM.
Compound N#Cc1ccc(C(O)CN2CCC3(CC2)CCN(c2ccc4nncn4n2)C3)nc1 (centres unmarked) [Example 42] has an IC50 of 0.117 µM.
N#Cc1ccc(C(O)CN2CCC3(CC2)CCN(c2ccc4nncn4n2)C3)nc1 (centres unmarked) [Example 43] showed an IC50 of 0.361 µM.
With COc1cc([C@H](O)CN2CCC3(CC2)CCN(c2ccc4nncn4n2)C3)ncc1C#N [Example 44] the IC50 was 0.124 µM.
COc1cc([C@@H](O)CN2CCC3(CC2)CCN(c2ccc4nncn4n2)C3)ncc1C#N [Example 45, 6-(2-(2-([1,2,4]triazolo[4,3-b]pyridazin-6-yl)-2,8-diazaspiro[4.5]decan-8-yl)-1-hydroxyethyl)-4-methoxynicotinonitrile] gave an IC50 of 0.0459 µM.
Cc1nc(C(O)CN2CCC3(CC2)CCN(c2ccc4nncn4n2)C3)ccc1C#N (centres unmarked) [Example 46, 6-(2-(2-([1,2,4]triazolo[4,3-b]pyridazin-6-yl)-2,8-diazaspiro[4.5]decan-8-yl)-1-hydroxyethyl)-2-methylnicotinonitrile] gave an IC50 of 0.077 µM.
Cc1nc(C(O)CN2CCC3(CC2)CCN(c2ccc4nncn4n2)C3)ccc1C#N (centres unmarked) [Example 47] gave an IC50 of 0.147 µM.
With Cc1cc(C#N)cnc1C(O)CN1CCC2(CC1)CCN(c1ccc3nncn3n1)C2 (centres unmarked) [Example 48] the IC50 was 0.0881 µM.
Work on Cc1cc(C#N)cnc1C(O)CN1CCC2(CC1)CCN(c1ccc3nncn3n1)C2 (centres unmarked) [Example 49] yielded an IC50 of 0.208 µM.
Work on COc1cc(C(O)CN2CCC3(CC2)CCN(c2ccc4nncn4n2)C3)ccc1C#N (centres unmarked) [Example 50] yielded an IC50 of 0.0415 µM.
COc1cc(C(O)CN2CCC3(CC2)CCN(c2ccc4nncn4n2)C3)ccc1C#N (centres unmarked) [Example 51] showed an IC50 of 0.0487 µM.
For COc1cc(C(O)CN2CCC3(CC2)CCN(c2ccc4nncn4n2)C3)c(Cl)cc1C#N (centres unmarked) [Example 56], the IC50 was 0.0276 µM.
Work on Cc1nc(C(O)CN2CCC3(CC2)CC(=O)N(c2ccc4nncn4n2)C3)ccc1C#N (centres unmarked) [Example 57] yielded an IC50 of 0.248 µM.
In the case of COc1cc(C(O)CN2CCC3(CC2)CC(=O)N(c2ccc4nncn4n2)C3)ccc1C#N (centres unmarked) [Example 58], the IC50 is reported as 0.413 µM.
Compound N#Cc1ccc(C(O)CN2CCC3(CC2)CC(=O)N(c2ccc4nncn4n2)C3)nc1 (centres unmarked) [Example 59] has an IC50 of 0.412 µM.
COc1cc([C@H](O)CN2CCC3(CC2)CC(=O)N(c2ccc4nncn4n2)C3)ncc1C#N [Example 60] gave an IC50 of 0.78 µM.
For COc1cc([C@@H](O)CN2CCC3(CC2)CC(=O)N(c2ccc4nncn4n2)C3)ncc1C#N [Example 61], the IC50 was 0.228 µM.
N#Cc1ccc(C(O)CN2CCC3(CCN(c4ccc5nncn5n4)CC3)C2)nc1 (centres unmarked) [Example 62] gave an IC50 of 0.129 µM.
In the case of N#Cc1ccc(C(O)CN2CCC3(CCN(c4ccc5nncn5n4)CC3)C2)nc1 (centres unmarked) [Example 63], the IC50 is reported as 0.154 µM.
For COc1cc([C@H](O)CN2CCC3(CCN(c4ccc5nncn5n4)CC3)C2)ncc1C#N [Example 64], the IC50 was 0.0918 µM.
In the case of Cc1cc(C#N)cnc1C(O)CN1CCC2(CCN(c3ccc4nncn4n3)CC2)C1 (centres unmarked) [Example 65, 6-(2-(8-([1,2,4]triazolo[4,3-b]pyridazin-6-yl)-2,8-diazaspiro[4.5]decan-2-yl)-1-hydroxyethyl)-5-methylnicotinonitrile], the IC50 is reported as 0.0347 µM.
For Cc1cc(C#N)cnc1C(O)CN1CCC2(CCN(c3ccc4nncn4n3)CC2)C1 (centres unmarked) [Example 66], the IC50 was 0.0728 µM.
In the case of Cc1nc(C(O)CN2CCC3(CCN(c4ccc5nncn5n4)CC3)C2)ccc1C#N (centres unmarked) [Example 67, 6-(2-(8-([1,2,4]triazolo[4,3-b]pyridazin-6-yl)-2,8-diazaspiro[4.5]decan-2-yl)-1-hydroxyethyl)-2-methylnicotinonitrile], the IC50 is reported as 0.0642 µM.
In the case of Cc1nc(C(O)CN2CCC3(CCN(c4ccc5nncn5n4)CC3)C2)ccc1C#N (centres unmarked) [Example 68], the IC50 is reported as 0.0859 µM.
Work on Cc1c([C@@H](O)CN2CCC3(CCN(c4ccc5nncn5n4)CC3)C2)ccc2c1COC2=O [Example 70, (R)-5-(2-(8-([1,2,4]triazolo[4,3-b]pyridazin-6-yl)-2,8-diazaspiro[4.5]decan-2-yl)-1-hydroxyethyl)-4-methylisobenzofuran-1(3H)-one] yielded an IC50 of 0.031 µM.
COc1cc([C@@H](O)CN2CCC3(CC2)CCN(c2ccc4nnnn4n2)C3)ncc1C#N [Example 71, (S)-6-(1-hydroxy-2-(2-(tetrazolo[1,5-b]pyridazin-6-yl)-2,8-diazaspiro[4.5]decan-8-yl)ethyl)-4-methoxynicotinonitrile] showed an IC50 of 0.208 µM.
For COc1cc([C@@H](O)CN2CCC3(CC2)CCN(c2nn4cnnc4s2)C3)ncc1C#N [Example 72], the IC50 was 0.25 µM.
With COc1cc([C@@H](O)CN2CCC3(CC2)CCN(c2ccc4nncn4c2)C3)ncc1C#N [Example 73] the IC50 was 0.221 µM.
Cc1c([C@@H](O)CN2CCC3(CC2)CCN(c2ccc4nncn4n2)C3=O)ccc2c1COC2=O [Example 74] was tested, and the IC50 was 0.116 µM.
In the case of COc1cc([C@@H](O)CN2CCC3(CC2)CCN(c2ccc4nncn4n2)C3=O)ncc1C#N [Example 75], the IC50 is reported as 0.608 µM.
Cc1c([C@@H](O)CN2CCC3(CCCN(c4ccc5nncn5n4)C3)CC2)ccc2c1COC2=O [Example 76] was tested, and the IC50 was 0.0976 µM.
For COc1cc([C@H](O)CN2CCC3(CC2)CCN(c2ccc4c(c2C)COC4=O)C3)ncc1C#N [Example 77, (R)-6-(1-hydroxy-2-(2-(4-methyl-1-oxo-1,3-dihydroisobenzofuran-5-yl)-2,8-diazaspiro[4.5]decan-8-yl)ethyl)-4-methoxynicotinonitrile], the IC50 was 0.0664 µM.
For Cc1nc(-n2cnnn2)ccc1[C@@H](O)CN1CCC2(CC1)CCN(c1ccc3c(c1C)COC3=O)C2 [Example 78], the IC50 was 0.622 µM.
Work on Cc1c([C@@H](O)CN2CCC3(CC2)CCN(c2ccc4c(c2C)COC4=O)C3)ccc2c1COC2=O [Example 79, (R)-5-(1-hydroxy-2-(2-(4-methyl-1-oxo-1,3-dihydroisobenzofuran-5-yl)-2,8-diazaspiro[4.5]decan-8-yl)ethyl)-4-methylisobenzofuran-1(3H)-one] yielded an IC50 of 0.019 µM.
In the case of Cc1c([C@@H](O)CN2CCC3(CC2)CN(c2ccc4c(c2C)COC4=O)C(=O)O3)ccc2c1COC2=O [Example 81, (R)-8-(2-hydroxy-2-(4-methyl-1-oxo-1,3-dihydroisobenzofuran-5-yl)ethyl)-3-(4-methyl-1-oxo-1,3-dihydroisobenzofuran-5-yl)-1-oxa-3,8-diazaspiro[4.5]decan-2-one], the IC50 is reported as 0.0914 µM.
Cc1c([C@@H](O)CN2CCC3(CC2)CCN(c2snc4ccccc24)C3=O)ccc2c1COC2=O [Example 82] gave an IC50 of 0.0326 µM.
